For data set [1], the system named is HepG2 cells. Nature of the data set: cytotoxicity assay, HepG2 cells (CellTiter 96 AQueous One Solution). The format is cell-based. The settings on record: 2 h and 24 h exposure, concentrations tested (FIG. 6). The protocol:
(§1) Cytotoxicity was tested on HepG2 and MRC-5 cells (normal lung fibroblasts) for 2 h (HepG2) and 24 h (HepG2 and MRC-5) using the CellTiter 96 AQueous One Solution Assay (Promega). MBC-005 and MBC-007 were not toxic to the HepG2 or the MRC5 cells in the concentrations tested (FIG. 6 and FIG. 7). In the CLPAA assays the cells were exposed to the test compounds for 1 h before washed. Thus a 2 h exposure would detect whether the MBC-compounds are likely to cause cell death and false results in the CLPAA assays. MRC5 and HepG2 cells were also exposed to the barettin compounds for 24 h. This would reveal more long-term damage or whether any toxicity was caused by something other than membrane lysis. […] This was above the concentrations used in the CLPAA assay.
(§2) HepG2 and MRC-5 cells were grown in MEM Earle's medium (F0325) supplemented with gentamycin (10 μg/ml, A2712), non-essential amino acids (1%, K0293), sodium pyruvate (1 mM, L0473), L-alanyl-L-glutamine (2 mM, K0302) and fetal bovine serum (10%, S0115) and incubated at 37° C. with 5% CO2. Media and supplements were from Biochrom (Berlin, Germany).
(§3) Cytotoxicity was studied in HepG2 and MRC-5 cells (normal human lung fibroblasts) for 2 h (HepG2) and 24 h (HepG2 and MRC-5). […] Absorbance was measured at 485 nm in a DTX 880 Multimode Detector. Results were calculated as % survival compared to a positive control.

The subject of data set [2] is HepG2 cells. The experiment in a line: cellular lipid peroxidation antioxidant activity (CLPAA) assay. The settings on record: for activity in CLPAA assay (lipid peroxidation in HepG2 cells): FIG. 4, normalized to positive control CumOOH. Format: cell-based. On the procedure: HepG2 cells were grown in MEM Earle's medium (F0325) supplemented with gentamycin (10 μg/ml, A2712), non-essential amino acids (1%, K0293), sodium pyruvate (1 mM, L0473), L-alanyl-L-glutamine (2 mM, K0302) and fetal bovine serum (10%, S0115) and incubated at 37° C. with 5% CO2. Media and supplements were from Biochrom (Berlin, Germany).
The inventors used the cellular lipid peroxidation antioxidant activity (CLPAA) assay. This assays measures the intracellular ROS (reactive oxygen species) and membrane antioxidant activity, respectively. The brominated barettin molecule gave a 55% reduction in oxidation compared to the control in the CLPAA assay.
Approximately 80.000 HepG2 cells per well were seeded in black 96 well plates with clear bottom (#3603, Corning, N.Y., USA) and incubated overnight. The cells were labelled with C11-BODIPY (#D3861, Invitrogen, Eugene, Oreg.) for 30 min and incubated for 1 h with various concentrations of the test compounds. Cumene hydroperoxide (cumOOH, #247502, Sigma-Aldrich, St. Louis, Mo.) was added to initiate lipid peroxidation and the plate was immediately placed in a Victor3 Plate Reader (Perkin Elmer, Mass., USA). Both red (590/7 nm (exitation), 632/45 nm (emission)) and green (485/14 nm, 520/10 nm) fluorescence was recorded during ˜1 h. Cells were washed with PBS between additions of new reagents. Total reaction volume was 100 μl. All incubations were carried out at 37° C. with 5% CO2. Percent inhibition was calculated relative to the positive control (cumOOH without test compound).

The nature of data set [3]: ORAC (oxygen radical absorbance capacity) assay. The following applies: for ORAC dose-response: FIG. 3. Format: biochemical. On the procedure:
The inventors used the biochemical assay ORAC (oxygen radical absorbance capacity) to obtain an indication of the antioxidant potential of MBC-005 (isolated brominated) and MBC-007 (synthetic de-brominated).
The method has been modified from Huang, D. et al., Journal of Agricultural and Food Chemistry 2002, 50, 4437-4444. The assay was carried out in black 96-well plates (Nunc 7350004) and using a Victor3 Plate Reader (Perkin Elmer, Mass., USA) at 37° C. (exitation 486 nm, emission 520 nm). All reagents were dissolved in 75 mM phosphate buffer (PB) (pH 7,4). Different concentrations of the MBC-005 and MBC-007 preparations were added in duplicates followed by addition of 125 μl fluorescein (Fluka, 46960) (52 nM final concentration). After a 15 minute incubation at 37° C., 60 μl AAPH (2,2′-Azobis(2-methylpropionamidine) dihydrochloride; Sigma-Aldrich, 440914) was quickly added to each sample (44 mM final concentration). Fluorescence was recorded 25 times at 37° C. with a 70 sec delay between repeats. Trolox (0-25 μM working concentration) was included in each run to make a standard curve. PB was used as a blank and for the 0 μM Trolox sample. Area under the curve (AUC) was calculated by subtracting the AUCBlank values. A standard curve was created using the Trolox values and Trolox equivalents of the samples were calculated from the resulting equation. Results were expressed as μM TE.

For data set [4], the system named is IL-6 release from THP-1 cells. Nature of the data set: LPS-induced release of IL-6 from THP-1 cells (ELISA). The format is cell-based, human. The protocol:
Monocytes are well-recognised to respond to inflammatory stimuli by releasing a range of cytokines; IL-6 is a highly expressed pro-inflammatory cytokine in activated monocytes. The principle of this assay was to compare the effect of pre-incubating human cells from a monocyte-derived cell line (THP-1) with a known anti-inflammatory drug (dexamethasone; Dex), or a range of concentrations of barettin, on IL-6 generation in response to the inflammatory stimulus, lipopolysaccharide (LPS).
THP-1 cells (Health Protection Agency, Porton Down, UK) were maintained at 37° C. with 5% CO2 in RPMI 1640 containing 10% foetal bovine serum, 2 mM L-glutamine with 100 IU/ml penicillin and 100 μg/ml streptomycin (PAA laboratories Ltd, Yeovil, UK). The cells were grown in suspension and then plated out in 24-well plates at 2×10^5 cells per well.
Treatments: • a. vehicle control (RPMI 1640+0.5% DMSO) • b. 10 μM Dex for 24 h • c. 10 μg/ml LPS for 24 h • d. Pre-treated with 10 μM Dex for 30 min followed by 10 μg/ml lipopolysaccharide LPS for 24 h • e. Pre-treated with barettin at 1, 3, 10, 30 and 100 μg/ml for 30 min followed by 10 μg/ml LPS for 24 h
The concentration of Dex and barettin remained consistent throughout the incubation period; the final DMSO concentration was 0.5%. Cells were incubated at 37° C. and 5% CO2 for 24 hours.
Following incubations, cells and supernatants were harvested into 1.5 ml Eppendorf® tubes and supernatants were cleared of cells and debris by centrifugation at 300 g for 3 min at room temperature. Supernatants were transferred to clean 1.5 ml Eppendorf® tubes and stored at −80° C.
IL-6 expression was measured by ELISA (eBioscience, human IL-6 Platinum ELISA) according to the manufacturer's instructions. Data were collected using a VarioSkan Flash plate reader and Skanit software v2.4.3 (Thermo Fisher Scientific, Basingstoke, UK).
A general note: In an ELISA, binding on a coated surface is turned into a signal by an enzyme label.

Data set [5] is described as follows: FRAP (ferric reducing antioxidant power) assay. The following applies: for FRAP value: 30 μg/ml; for FRAP dose-response: FIG. 2. The format is biochemical. The protocol:
The inventors used the biochemical assay FRAP (ferric reducing antioxidant power) to obtain an indication of the antioxidant potential of MBC-005 (isolated brominated) and MBC-007 (synthetic de-brominated).
Reagents were prepared according to benzie, I.F.F. et al. Analytical Biochemistry 1996, 239, 70-76 and carried out in a DTX 880 Multimode Detector (Beckman Coulter, Calif., USA) at 595 nm. Trolox (Sigma, 238813) was used to prepare the standard curve (0-250 μM; working concentration). The FRAP reagent (TPTZ (2,4,6-Tris(2-pyridyl)-s-triazine): Fluka, 93285; Fe: Merck 103943) was prepared daily. The assay was carried out in clear 96-well plates, with 20 μl sample and 150 μl FRAP-reagent added to each well in duplicates. Water was used as a blank. Samples were incubated at 37° C. for 30 min before reading the plate. The blank was subtracted from each sample and a standard curve was created from the average absorbance of the duplicated Trolox samples. The equation generated from the standard curve was used to calculate the trolox equivalents (TE) from each sample. Results were expressed as μM TE.

The nature of data set [6]: cytotoxicity of isolated barettin over 72 h (data not shown). The format is cell-based. An excerpt:
MBC-005 and MBC-007 were not toxic to the HepG2 or the MRC5 cells in the concentrations tested (FIG. 6 and FIG. 7). […] This would reveal more long-term damage or whether any toxicity was caused by something other than membrane lysis. […] This was above the concentrations used in the CLPAA assay.

For data set [7], the system named is MRC-5 cells (normal human lung fibroblasts). Nature of the data set: cytotoxicity assay, MRC-5 cells (CellTiter 96 AQueous One Solution). Format: cell-based. The settings on record: 24 h exposure, concentrations tested (FIG. 7). The protocol: as §1, §2, §3
Data set [8] concerns tumor necrosis factor-alpha (TNF-α) in LPS induced monocytes (THP-1 cells). The experiment in a line: inhibition of TNF-α secretion in LPS induced monocytes (ELISA). Format: cell-based, human. The following applies: 75 and 100 μg/ml, LPS induced THP-1 cells. On the procedure: (§4) Tumor necrosis factor-alpha (TNF-α) and Interleukin-1 beta (IL-1β) are both cytokines (small cell-signalling protein molecules) linked to inflammatory responses. Thus, the present inventors have tested the ability of isolated barettin (designated MCB-011 in the present experiment) to inhibit the secretion of these cytokines in LPS induces monocytes (THP-1 cells).
(§5) THP-1 cells were grown in RPMI-1640 supplemented with gentamycin and FBS and incubated at 37° C. with 5% CO2. To differentiate the monocytes into macrophages, 50 ng/ml PMA was added. Approximately 10^5 cells supplemented with 50 ng/ml PMA were seeded in 96 well plates and incubated at 37° C., 5% CO2 for 48 hours. The cells were controlled using a microscope after 24 h to make sure they had started to differentiate. After 48 h the cells were washed and new RPMI (w/o PMA) added before another 24 h incubation.
(§6) The cells were added 90 μl fresh medium and 10 μl test compound at various concentrations in duplex. After incubation for 1 h, 1 ng/ml LPS was added to all samples except negative controls. Incubation for 6 h at 37° C. followed. The reactions were stopped by freezing the plates at −80° C. immediately after incubation. One day prior to ELISA testing MaxiSorp 96F-well plates were coated with 2 μg/ml capture antibody (Ab) and placed in the refrigerator overnight. […] Results were read at DTX880 at 405 nm.

Data set [9] relates to Interleukin-1 beta (IL-1β) in LPS induced monocytes (THP-1 cells). Nature of the data set: inhibition of IL-1β secretion in LPS induced monocytes (ELISA). The settings on record: 75 and 100 μg/ml, LPS induced THP-1 cells. Format: cell-based, human. The protocol:
as §4, §5, §6

As to `N=C(N)NCCCC1NC(=O)/C(=C/c2c[nH]c3cc(Br)ccc23)NC1=O` (stereo not drawn) [MBC-005, cyclo-[(6-bromo-8-en-tryptophan)-arginine]], the “cytotoxicity to HepG2 cells” value in the data set with HepG2 cells [1] is on record as “not toxic”. Further, the “activity in CLPAA assay (lipid peroxidation in HepG2 cells)” value in the data set on HepG2 cells [2] is reported as “acts in a dose-dependent manner to reduce lipid peroxidation”. The “reduction in oxidation compared to the control” value in the data set with HepG2 cells [2] (HepG2 cells, cumOOH-induced lipid peroxidation) stood at 55%. For the same molecule, the “ORAC value (Trolox equivalents)” value in [3] (30 μg/ml (71.6 μM)) worked out at 5.5 μM TE. The ORAC dose-response result in data set [3] was “dose-response activity was observed”. The “effect on LPS-induced generation of IL-6, significance” value in data set [4] (1 μg/ml (~2.4 μN)) is listed as “significant”. The “anti-inflammatory effect versus cytotoxicity” value in data set [4] (30 μg/ml and below) is reported as “genuine anti-inflammatory effect”. The “effect on LPS-induced generation of IL-6” value in data set [4] (1-100 μg/ml, 30 min pre-treatment, 10 μg/ml LPS 24 h) is reported as “clear concentration-dependent effect”. For the same molecule, the “IL-6 expression with compound alone (no LPS)” value in data set [4] (pilot data, THP-1 cells, compound alone) is recorded as “did not result in the up-regulation of IL-6 expression”. Also, in [5], the FRAP value is 77 μM TE and the FRAP dose-response entry is on record as “dose-response activity was observed”. In addition, the “concentration at which cytotoxicity appears” value in data set [6] is not below 100 µg/mL. In addition, the “cytotoxicity to MRC5 cells” value in [7] is “not toxic”.
On to `N=C(N)NCCC[C@@H]1NC(=O)/C(=C/c2c[nH]c3ccccc23)NC1=O` [MBC-007], for which the “cytotoxicity to HepG2 cells” value with HepG2 cells [1] is recorded as “not toxic”. Moreover, the “activity in CLPAA assay (lipid peroxidation in HepG2 cells)” value in the data set with HepG2 cells [2] (listed as de-brominated synthetic analogue) is “did not show any significant activity”. Besides, the ORAC dose-response result in data set [3] is given as “dose-response activity was observed”. In addition, in data set [5], the FRAP dose-response result is on record as “dose-response activity was observed”. Besides, the “cytotoxicity to MRC5 cells” value in [7] is reported as “not toxic”.
In turn, `O=c1cc(-c2ccc(O)c(O)c2)oc2cc(O)cc(O)c12` [luteolin, reference compound] yielded an FRAP value in [5] of 151 μM TE.
For the molecule `N=C(N)NCCC[C@@H]1NC(=O)/C(=C/c2c[nH]c3cc(Br)ccc23)NC1=O` [MBC-011, Barettin], in data set [8], the “inhibition of TNF-α” value was “significant inhibition”. Further, in data set [9], the “inhibition of IL-1β” value was “significant inhibition”.

The record behind these values is US20160039796A1, “BARETTIN AND DERIVATIVES THEREOF FOR MEDICAL USE, IN PARTICULAR FOR THE TREATMENT OF DISEASES RELATED TO OXIDATIVE STRESS OR INFLAMMATION, AND FOR PRESERVING OR WASHING ORGANS” (ABC Bioscience AS, priority 2013, published 2016).
